{"source": "patent US5096896A", "about": "“Sustained release compositions” (National Research Development Corporation, priority 1981, dated 1992)", "key": {"[1]": {"tested_on": "P. berghei sulphonamide resistant ORA strain", "assay": "Experiment 4: protection against sulphonamide resistant ORA strain P. berghei", "format": "in vivo, Plasmodium berghei in mice", "settings": "1 x 1000 mg/kg, 0 (day 42 of exp)", "experimental": "(§1) This experiment was designed to ascertain whether the sustained release composition of this invention could be utilised for the release of a mixture of active substances from a single depot. Preparations of 30% sulphadiazine + 10% pyrimethamine base in S2 (a new batch prepared as in Example 6) were blended and injected sc in 50 mg aliquots into mice in the suprascapular position. Additional groups of mice received S2 alone or no drug. Three groups of mice with S2 + drugs and 1 group with S2 alone were prepared for challenge on each of days 28, 42, 56 and 70. At each time interval one group each of the S2 + drug mice were challenged by the inoculation iv of 1×10^6 mouse erythrocytes infected with the drug sensitive N strain of P. berghei, the pyrimethamine resistant PYR strain and the sulphonamide resistant ORA strain, respectively. The group of mice with S2 alone was challenged with N strain parasites. Additional groups of control mice without oil were dosed with pyrimethamine (60 mg/kg) and orisulf (1000 mg/kg) immediately post-infection."}, "[2]": {"tested_on": "P. berghei pyrimethamine resistant PYR strain", "assay": "Experiment 4: protection against pyrimethamine resistant PYR strain P. berghei", "format": "in vivo, Plasmodium berghei in mice", "settings": "1 x 60 mg/kg, 0 (day 42 of exp)", "experimental": "as §1"}, "mice": {"tested_on": "mice", "assay": "Toxicity of the derivative oils, alone or with drug, in mice", "format": "in vivo", "from_the_text": "(§2) An extensive toxicological investigation of the oils, either alone or in combination with antimalarials, has not been undertaken. The observations reported here are based on the behaviour and condition of mice immediately following injection of test substances, and on the development of any obvious gross pathology subsequent to drugging. All animals in experimental groups were examined at intervals for evidence of ulceration or other tissue reactions at the site of injection and mice were killed at intervals and examined for residual oil deposits and evidence of adverse tissue reactions to such deposits."}, "[3]": {"tested_on": "Plasmodium berghei (N strain)", "assay": "Experiment 1: P. berghei challenge of mice after sc injection of derivative oil with or without pyrimethamine", "format": "in vivo, Plasmodium berghei in mice (Tuck TFW male white)", "experimental": "In the following experiments several derivative oils of this invention, prepared as aforesaid, were evaluated and compared for suitability as matrixes for active substances in the preparation of injectable depot antimalarial systems.\nDepot preparations were made up by adding, by hand mixing, powdered active substance to the respective oil at 30% w/w.\nTwenty-eight groups of mice, 5 mice per group, were selected at random from pooled Tuck TFW male white mice of approximately body weight 20 g. The mice were provided with food and water ad libitum. Care was taken that the diet contained adequate levels of p-aminobenzoic acid and that the mouse stock was free from infection with Eperythrozoon coccoides.\nOn day 0 the groups of mice were processed as follows:\n(§3) Subcutaneous injections were administered in the mid dorsal, suprascapular position. Cages were examined daily and all deaths recorded. Mice were examined for evidence of local irritation at the site of injection.\nOn day 7, groups (cages) 1 to 7 inclusive were infected with Plasmodium berghei (N strain). 0.2 ml of an inoculum containing 1×10^6 infected mouse erythrocytes was injected into the tail vein of each recipient mouse. The presence or absence of patent malarial infection was determined by blood film examination three days post infection and at intervals thereafter. Standard procedures were employed in the examination of Giemsa stained blood films and in the determination of parasitaemia levels. The method of infection and the techniques for assessment of parasitaemia were as described previously. Some groups in which no parasitaemia developed after the initial inoculation with P. berghei were subsequently reinfected on the days illustrated in Table 5."}, "[4]": {"tested_on": "Plasmodium berghei (N strain)", "assay": "Experiment 2: P. berghei challenge of mice after sc injection of oil/pyrimethamine mixtures", "format": "in vivo, Plasmodium berghei in mice (Tuck TFW)", "experimental": "This experiment was designed to extend the observation presented above in Experiment 1. All basic experimental procedures, including the preparation of 30% w/w dispersions of pyrimethamine base in S1, S2 and S3, were performed as described above. The primary objective was to obtain confirmation of the results obtained above whilst extending the period of observation. […] Twenty-seven groups of mice, with 5 mice in each, were again selected at random from pooled male white mice (Tuck TFW) of 20 gm body weight. Individual groups received 50 mg injections sc of S1 + pyrimethamine, S2 + pyrimethamine, S3 + pyrimethamine or S2 above. The distribution of groups is shown below:\nAt intervals of 14 days one group of mice from each of the different classes of inocula were infected by the intravenous injection of 1×10^6 mouse erythrocytes parasitised with P. berghei (N strain).\nThe examination of mice for P. berghei infection was performed as described above in Experiment 1."}, "[5]": {"tested_on": "P. berghei drug sensitive N strain", "assay": "Experiment 4: protection against drug sensitive N strain P. berghei", "format": "in vivo, Plasmodium berghei in mice", "experimental": "as §1"}, "P. berghei": {"tested_on": "P. berghei", "assay": "Experiment 5: duration of protection by tetracycline in derivative oils", "format": "in vivo, Plasmodium berghei in mice", "settings": "30% tetracycline hydrochloride in oil, 100 mg sc", "experimental": "This experiment (which is incomplete) was designed to ascertain the suitability of the derivatives of this invention in the administration of antibiotics. All basis experimental procedures were as described above except that the mice received 100 mg of the 30% mixtures of active substance (tetracycline as free base, or tetracycline as hydrochloride)."}, "mice (site of injection)": {"tested_on": "mice (site of injection)", "assay": "Tissue reaction and residual oil at the site of injection", "format": "in vivo", "experimental": "as §3, §2"}}, "note": "“Also recorded” adds a separate entry of the source."}
{"smiles": "Nc1ccc(S(=O)(=O)Nc2ccnn2-c2ccccc2)cc1", "note": "[orisulf]", "values": [{"measurement": "Mice with patent parasitaemia post-challenge", "setting": "[1]; day 3", "result": "5/5"}, {"measurement": "Mice with patent parasitaemia post-challenge", "setting": "[1]; day 7", "result": "5/5"}, {"measurement": "Mice with patent parasitaemia post-challenge", "setting": "[1]; day 10", "result": "5/5"}]}
{"smiles": "CCc1nc(N)nc(N)c1-c1ccc(Cl)cc1", "note": "[pyr, pyrimethamine]", "values": [{"measurement": "Mice with patent parasitaemia post-challenge", "setting": "[2]; day 3", "result": "5/5"}, {"measurement": "Mice with patent parasitaemia post-challenge", "setting": "[2]; day 7", "result": "4/4"}, {"measurement": "Mice with patent parasitaemia post-challenge", "setting": "[2]; day 10", "result": "4/4"}, {"measurement": "Mice dead at 24 hours", "setting": "mice; mouse, in vivo", "result": "One of 5 mice"}]}
{"smiles": "CCc1nc(N)nc(N)c1-c1ccc(Cl)cc1", "note": "[pyrimethamine isethionate]", "values": [{"measurement": "Mortality after dosing", "setting": "mice; mouse, in vivo", "result": "all mice died within 1 hour of dosing"}, {"measurement": "Distress after dosing", "setting": "mice; sc, equivalent to 750 mg/kg and 1500 mg/kg base", "result": "induced distress in animals within minutes"}]}
{"smiles": "CCOC1CCCC(COC(=O)C2CCCC(OCC)O2)O1", "note": "(centres unmarked) [Example S2]", "values": [{"measurement": "Parasitaemia (%) on days post infection", "setting": "[3]; infected 7 days after drugging, day 3, 50 mg sc", "result": 11.2, "unit": "%"}, {"measurement": "Parasitaemia (%) on days post infection", "setting": "[3]; infected 7 days after drugging, day 10, * estimated, 1 only survivor", "result": "~80", "unit": "%"}, {"measurement": "Parasitaemia (%) on days post infection", "setting": "[3]; infected 21 days after drugging, day 3, 50 mg sc", "result": 24, "unit": "%"}, {"measurement": "Parasitaemia (%) on days post infection", "setting": "[3]; infected 21 days after drugging, day 10, * estimated, 1 only survivor", "result": "~80", "unit": "%"}, {"measurement": "Parasitaemia (%) on days post infection", "setting": "[3]; infected 32 days after drugging, day 3", "result": 11.6, "unit": "%"}, {"measurement": "Parasitaemia (%) on days post infection", "setting": "[3]; infected 32 days after drugging, day 7", "result": 56, "unit": "%"}, {"measurement": "Malaria parasites in blood on day 3 post-infection", "setting": "[3]; infected day 45, groups 24 and 25", "result": "no malaria parasite was observed"}, {"measurement": "Parasitaemia (%) on days post infection", "setting": "[3]; infected days 45, 48 after drugging, day 3 (first value)", "result": 0, "unit": "%"}, {"measurement": "Parasitaemia (%) on days post infection", "setting": "[3]; infected days 45, 48 after drugging, day 3 (second value, after the slash)", "result": 8.8, "unit": "%"}, {"measurement": "Parasitaemia (%) on days post infection", "setting": "[3]; infected days 45, 48 after drugging, day 7", "result": 16.4, "unit": "%"}, {"measurement": "Parasitaemia (%) on days post infection", "setting": "[3]; infected days 45, 48 after drugging, day 10", "result": 80, "unit": "%"}, {"measurement": "Minimum period of protection of mice with pyrimethamine", "setting": "[3]; oil with pyrimethamine, 50 mg sc", "result": "≥ 9", "unit": "weeks"}, {"measurement": "Duration of antimalarial protection", "setting": "[4]; 50 mg sc, 30% w/w pyrimethamine base", "result": "not less than 12 weeks"}, {"measurement": "Parasitaemia on days post infection", "setting": "[4]; challenge day 14, day 3/4, a: only one mouse surviving", "result": 41, "unit": "%"}, {"measurement": "Parasitaemia on days post infection", "setting": "[4]; challenge day 14, day 7/8, a: only one mouse surviving", "result": 80, "unit": "%"}, {"measurement": "Parasitaemia on days post infection", "setting": "[4]; challenge day 28, day 3/4", "result": 26, "unit": "%"}, {"measurement": "Parasitaemia on days post infection", "setting": "[4]; challenge day 28, day 7/8", "result": 50, "unit": "%"}, {"measurement": "Parasitaemia on days post infection", "setting": "[4]; challenge day 42, day 3/4", "result": 3.7, "unit": "%"}, {"measurement": "Parasitaemia on days post infection", "setting": "[4]; challenge day 42, day 7/8", "result": 32, "unit": "%"}, {"measurement": "Parasitaemia on days post infection", "setting": "[4]; challenge day 56, day 3/4", "result": 26, "unit": "%"}, {"measurement": "Parasitaemia on days post infection", "setting": "[4]; challenge day 56, day 7/8", "result": 70, "unit": "%"}, {"measurement": "Parasitaemia on days post infection", "setting": "[4]; challenge day 56, day 10", "result": 78, "unit": "%"}, {"measurement": "Parasitaemia on days post infection", "setting": "[4]; challenge day 70, day 3/4", "result": 23, "unit": "%"}, {"measurement": "Parasitaemia on days post infection", "setting": "[4]; challenge day 70, day 7/8", "result": 74, "unit": "%"}, {"measurement": "Parasitaemia on days post infection", "setting": "[4]; challenge day 70, day 10, a: only one mouse surviving", "result": 80, "unit": "%"}, {"measurement": "Parasitaemia on days post infection", "setting": "[4]; challenge day 84, day 3/4", "result": 29.6, "unit": "%"}, {"measurement": "Parasitaemia on days post infection", "setting": "[4]; challenge day 84, day 7/8, c: one mouse of 5 patent", "result": 70, "unit": "%"}, {"measurement": "Parasitaemia on days post infection", "setting": "[4]; challenge day 84, day 10", "result": 80, "unit": "%"}, {"measurement": "Mice with patent parasitaemia post-challenge", "setting": "[5]; challenge day 28, day 3", "result": "5/5"}, {"measurement": "Mice with patent parasitaemia post-challenge", "setting": "[5]; challenge day 28, day 7", "result": "5/5"}, {"measurement": "Mice with patent parasitaemia post-challenge", "setting": "[5]; challenge day 42, day 3", "result": "5/5"}, {"measurement": "Mice with patent parasitaemia post-challenge", "setting": "[5]; challenge day 42, day 7", "result": "2/2"}, {"measurement": "Mice with patent parasitaemia post-challenge", "setting": "[5]; challenge day 56, day 3", "result": "5/5"}, {"measurement": "Mice with patent parasitaemia post-challenge", "setting": "[5]; challenge day 56, day 7", "result": "5/5"}, {"measurement": "Duration of protection (days), tetracycline HCl", "setting": "P. berghei", "result": "< 7", "unit": "days"}, {"measurement": "Residual injected oil at injection site", "setting": "mice (site of injection); 54 days after injection", "result": "Residues of the injected material were found in each of the 5 mice; also recorded: Somewhat greater quantities, albeit small amounts"}, {"measurement": "Persistence of oil in vivo", "setting": "mice (site of injection); in words", "result": "stable for a surprisingly long time in vivo"}, {"measurement": "Tissue reaction to oil at injection site", "setting": "mice (site of injection); oil alone, autopsy at 54 days", "result": "No evidence of adverse tissue reaction; also recorded: no marked fibrosis or vascularisation of the oil depot site"}]}
